According to ChEMBL document CHEMBL4020810, “Janus-Associated Kinase 1 (JAK1) Inhibitors as Potential Treatment for Immune Disorders” (ACS Med Chem Lett, 2017):

Tests used:
[1] = molecular target: T1, Tyrosine-protein kinase JAK1 (Homo sapiens, UniProt P23458); test: Inhibition of JAK1 in human NCI-H1975 cells assessed as reduction in STAT3 phosphorylation incubated for 2 hrs; format: cell-based
[2] = molecular target: T2, Tyrosine-protein kinase JAK3 (Homo sapiens, UniProt P52333); test: Inhibition of N-terminal GST fused recombinant JAK3 (781 to 1124 amino acids) (unknown origin) expressed in insect cells using ATP and peptide substrate (5FAM-GEEPLYWSFPAKKK-NH2
T2 sequence (P52333 whole entry): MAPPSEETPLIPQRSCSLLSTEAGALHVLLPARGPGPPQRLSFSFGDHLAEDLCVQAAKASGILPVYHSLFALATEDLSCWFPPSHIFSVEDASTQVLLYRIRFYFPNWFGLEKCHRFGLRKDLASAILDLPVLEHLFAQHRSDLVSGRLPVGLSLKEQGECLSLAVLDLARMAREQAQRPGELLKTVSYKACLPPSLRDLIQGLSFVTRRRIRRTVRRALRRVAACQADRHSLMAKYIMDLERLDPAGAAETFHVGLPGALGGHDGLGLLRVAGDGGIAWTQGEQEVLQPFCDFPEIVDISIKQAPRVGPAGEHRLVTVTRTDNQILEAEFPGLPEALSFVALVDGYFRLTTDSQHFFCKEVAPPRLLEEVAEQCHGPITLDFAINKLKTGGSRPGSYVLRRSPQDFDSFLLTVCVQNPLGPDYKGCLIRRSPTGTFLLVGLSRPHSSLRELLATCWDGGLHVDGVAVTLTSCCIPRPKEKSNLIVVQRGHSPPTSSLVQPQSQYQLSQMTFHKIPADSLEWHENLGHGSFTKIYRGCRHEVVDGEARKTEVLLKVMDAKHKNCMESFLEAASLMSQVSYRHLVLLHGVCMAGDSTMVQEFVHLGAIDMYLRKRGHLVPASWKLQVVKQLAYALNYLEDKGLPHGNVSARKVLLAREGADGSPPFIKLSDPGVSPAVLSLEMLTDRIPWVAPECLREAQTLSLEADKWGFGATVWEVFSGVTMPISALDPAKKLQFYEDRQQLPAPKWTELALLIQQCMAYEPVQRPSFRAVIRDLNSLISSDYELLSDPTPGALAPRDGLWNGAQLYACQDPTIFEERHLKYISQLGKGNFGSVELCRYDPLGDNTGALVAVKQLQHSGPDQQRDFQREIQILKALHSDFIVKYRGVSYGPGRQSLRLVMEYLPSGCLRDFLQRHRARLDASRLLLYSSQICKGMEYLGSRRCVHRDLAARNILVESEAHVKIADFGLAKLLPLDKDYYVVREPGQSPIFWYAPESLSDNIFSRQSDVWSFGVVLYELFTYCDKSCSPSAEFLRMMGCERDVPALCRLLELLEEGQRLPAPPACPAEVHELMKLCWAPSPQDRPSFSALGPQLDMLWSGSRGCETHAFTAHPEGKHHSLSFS

[3] = molecular target: T1, Tyrosine-protein kinase JAK1; test: Inhibition of N-terminal GST fused human recombinant JAK1 (866 to 1154 amino acids) expressed in insect cells using ATP and peptide substrate (FITC-C6-KKHTDDGYMPMSPGVA-NH2

T1 sequence (P23458 whole entry, the tested form may be a part): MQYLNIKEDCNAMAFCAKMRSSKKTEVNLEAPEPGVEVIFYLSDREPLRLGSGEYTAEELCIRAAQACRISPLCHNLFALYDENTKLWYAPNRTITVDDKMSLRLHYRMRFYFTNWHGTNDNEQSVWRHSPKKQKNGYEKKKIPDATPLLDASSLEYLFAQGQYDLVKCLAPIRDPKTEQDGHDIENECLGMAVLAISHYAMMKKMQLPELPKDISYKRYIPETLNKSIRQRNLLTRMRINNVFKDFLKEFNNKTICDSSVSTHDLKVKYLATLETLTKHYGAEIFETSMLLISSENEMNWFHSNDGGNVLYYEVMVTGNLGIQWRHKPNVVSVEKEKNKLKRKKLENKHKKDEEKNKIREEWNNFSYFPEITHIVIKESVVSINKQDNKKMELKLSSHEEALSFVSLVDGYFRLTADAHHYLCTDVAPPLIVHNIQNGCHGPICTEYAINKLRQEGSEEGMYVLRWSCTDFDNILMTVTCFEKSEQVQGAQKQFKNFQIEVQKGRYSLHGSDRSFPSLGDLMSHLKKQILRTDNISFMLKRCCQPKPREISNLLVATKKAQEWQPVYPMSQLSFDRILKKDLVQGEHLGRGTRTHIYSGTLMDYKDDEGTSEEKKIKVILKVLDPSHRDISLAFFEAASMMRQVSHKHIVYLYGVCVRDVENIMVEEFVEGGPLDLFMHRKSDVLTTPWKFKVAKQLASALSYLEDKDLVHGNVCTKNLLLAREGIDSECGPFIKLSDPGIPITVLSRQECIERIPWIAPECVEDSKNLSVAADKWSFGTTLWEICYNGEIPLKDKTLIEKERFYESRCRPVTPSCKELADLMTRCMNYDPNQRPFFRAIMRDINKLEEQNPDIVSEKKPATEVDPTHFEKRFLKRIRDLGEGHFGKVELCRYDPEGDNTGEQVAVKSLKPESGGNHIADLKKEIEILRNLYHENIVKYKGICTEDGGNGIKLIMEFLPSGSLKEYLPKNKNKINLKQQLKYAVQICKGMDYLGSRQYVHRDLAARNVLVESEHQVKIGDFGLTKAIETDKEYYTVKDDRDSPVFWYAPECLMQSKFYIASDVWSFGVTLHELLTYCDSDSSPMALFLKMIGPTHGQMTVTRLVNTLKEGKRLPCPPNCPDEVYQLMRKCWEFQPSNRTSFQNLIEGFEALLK

Row | IC50 [1] [nM] | IC50 [2] [nM] | IC50 [3] [nM] | Structure (SMILES)
1 | 56.6 | > 30000 | < 3 | COC[C@H](C(=O)Nc1cccc2c(-c3nc(Nc4cn(C)nc4C)ncc3F)c[nH]c12)N1CCN(C)CC1
2 | 57.9 |  |  | COc1nn(C)cc1Nc1ncc(Cl)c(-c2c[nH]c3c(NC(=O)[C@@H](C)N4CCN(C)CC4)cccc23)n1
3 | > 3000 |  |  | CCOc1nn(C)cc1Nc1ncc(F)c(-c2c[nH]c3c(NC(=O)[C@H](C)N4CCN(C)C[C@@H]4C)cccc23)n1
4 | 75.1 | > 30000 | < 4 | CC[C@H](C(=O)Nc1cccc2c(-c3nc(Nc4cn(C)nc4C)ncc3F)c[nH]c12)N1CCN(C)CC1
5 | 104 | > 30000 | < 6 | CCOc1nn(C)cc1Nc1ncc(C)c(-c2c[nH]c3c(NC(=O)[C@@H](CC)N4CCN(C)CC4)cccc23)n1
6 | 643 |  |  | COc1nn(C)cc1Nc1nccc(-c2c[nH]c3c(NC(=O)[C@@H](C)N4CCN(C)C[C@@H]4C)cccc23)n1
